# Test results reported in patent US20250144099A1, “INK4 TUMOR SUPPRESSOR PROTEINS MEDIATE RESISTANCE TO CDK4/6 KINASE INHIBITORS” (MEMORIAL SLOAN-KETTERING CANCER CENTER, priority 2021, published 2025).
# “Also recorded” adds a separate entry of the source.
# How the values were obtained:
# [1] = target: CDK6 (Homo sapiens, UniProt Q00534); experiment: Immunoblotting of CDK6 degradation in cells; assay type: cell-based; design: MCF7 cells that lost FAT1 expression and with high CDK6 expression; endogenous in cells; host or cells: MCF-7 FAT1 loss cells (also MCF-7 parental)
# Method: (§1) Cell lysates were collected in RIPA buffer (Thermo Fisher Scientific) supplemented with protease and phosphatase inhibitors (Pierce). Protein concentration was quantified by using the BCA kit (Fisher Scientific). […] of protein lysates were loaded onto 4-12% SDS-PAGE gels (Invitrogen) for electrophoresis and transferred onto nitrocellular membranes. Blots were blocked with Intercept™ (TBS) Blocking Buffer (LI-COR Bioscience #927-60001) and incubated with primary antibody at 4° C. overnight. Secondary antibodies conjugated with fluorescence (LI-COR Bioscience #926-68071 and #926-32210) were incubated for 1 h at room temperature and blots were scanned by Odyssey Clx Imaging System from LI-COR Bioscience.
# [2] = system: prostate cancer cell 22RV1; experiment: Colony formation assay; assay type: cell-based; conditions: 21 days treatment
# [3] = system: MCF-7 parental cells; experiment: Senescence Green staining and cell cycle analysis; assay type: cell-based, human; conditions: 500 nM; senescence 8 days, cell cycle 24 h
# Method: Senescence analysis. […] Cells were harvested using trypsin/EDTA, then stained with the CellEvent Senescence Green Flow Cytometry Assay Kit (Invitrogen) according to the manufacturer's instructions. Briefly, cells were fixed with 2% paraformaldehyde for 15 min at room temperature and stained with the CellEvent Senescence Green Probe for 2 hours at 37° C. without CO2. After incubation, cells were washed with PBS 3 times and resuspended in FACS buffer (PBS with 2% FBS) for analysis on BD Biosciences LSR Fortessa using a 488 nm laser and 530 nm/30 filter (BD Biosciences). Data analysis was performed with FCS Express 7 (De Novo Software).
# Cell cycle analysis. […] Cells were detached from the cell culture dish with trypsin/EDTA, then washed with PBS and fixed in 70% ice-cold EtOH overnight. Prior to staining, EtOH was removed, and cells were washed twice with FACS buffer. Cells were then resuspended in staining buffer containing 1000 μl FACS buffer with 2 μg/ml propidium iodide (Invitrogen) and 100 μg/ml RNase A (Invitrogen). Cell cycle profiles were measured with BD Biosciences LSR Fortessa and analyzed with FCS Express 7.
# [4] = system: ~900 cell lines; experiment: PRISM cell line screening; assay type: cell-based; conditions: 8 pt. dose, 5 days
# Method: Cell Lines. The current PRISM cell set consists of 931 cell lines representing more than 45 lineages including both adherent and suspension/hematopoietic cell lines. These cell lines largely overlap with and reflect the diversity of the Cancer Cell Line Encyclopedia (CCLE) cell lines (see https://portals.broadinstitute.org/ccle). Cell lines were grown in RPMI 10% FBS without phenol red for adherent lines and RPMI 20% FBS without phenol red for suspension lines. Parental cell lines were stably infected with a unique 24-nucleotide DNA barcode via lentiviral transduction and blasticidin selection. After selection, barcoded cell lines were expanded and QCed (mycoplasma contamination test, a SNP test for confirming cell line identity, and barcode ID confirmation). Passing barcoded lines were then pooled (20-25 cell lines per pool) based on doubling time and frozen in assay-ready vials.
# PRISM Screening. […] These assay ready plates were then seeded with the thawed cell line pools. […]
# Barcode Amplification and Detection. Each cell line's unique barcode is located at the end of the blasticidin resistance gene and gets expressed as mRNA. […] Finally, Luminex beads that recognize the specific barcode sequences in the cell set were hybridized to the PCR products and then detected using a Luminex scanner which reports signal as a median fluorescent intensity (MFI).
# [5] = system: patient-derived xenograft models; experiment: Patient-derived xenograft tumor growth; assay type: in vivo, mice; conditions: two patient-derived xenograft models; ribociclib at clinical equivalent dose
# [6] = system: MCF-7 parental cells; experiment: Cell viability assay (Resazurin); assay type: cell-based, human; conditions: day 7
# Method: (§2) Cell viability was measured by Resazurin (R&D Systems, Minneapolis, MN, USA) as described previously (51). Briefly, 1,500 cells were seeded in a 96-well plate and allowed to recover overnight. Cells were treated with drugs at day 0. Resazurin was added to the cells 4 hours prior to the measurements on day 3, day 5 and day 7. Fluorescent intensity was measured using a microplate reader (SpectraMax M5, Molecular Devices, Sunnyvale, CA, USA). IC50 was calculated by GraphPad Prism 7.0 using a sigmoidal regression model.
# [7] = system: MCF-7 CDK6-high cells (FAT1 loss); experiment: Cell viability assay (Resazurin); assay type: cell-based, human; conditions: day 7
# Method: as §2
# [8] = system: phosphorylation of Rb; experiment: Immunoblotting of Rb phosphorylation in cells; assay type: cell-based, human; conditions: FAT1 loss / CDK6-high CDK4/6i-resistant MCF7 cells
# Method: as §1
# Sequence of CDK6 (Q00534 whole entry): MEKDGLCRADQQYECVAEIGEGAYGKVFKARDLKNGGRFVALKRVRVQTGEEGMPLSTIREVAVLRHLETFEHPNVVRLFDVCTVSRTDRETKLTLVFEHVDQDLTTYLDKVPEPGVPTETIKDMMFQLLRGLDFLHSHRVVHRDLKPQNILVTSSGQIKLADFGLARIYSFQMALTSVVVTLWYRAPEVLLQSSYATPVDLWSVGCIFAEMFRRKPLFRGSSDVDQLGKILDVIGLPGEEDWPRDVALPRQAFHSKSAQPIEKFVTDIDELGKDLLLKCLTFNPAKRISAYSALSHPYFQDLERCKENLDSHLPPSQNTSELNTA
smiles,measurement,setting,value
"CC(=O)c1c(C)c2cnc(Nc3ccc(N4CCN(CCCCC(=O)N[C@H](C(=O)N5C[C@H](O)C[C@H]5C(=O)N[C@@H](C)c5ccc(-c6scnc6C)cc5)C(C)(C)C)CC4)cn3)nc2n(C2CCCC2)c1=O [BSJ-05-017, (2S,4R)-1-((S)-2-(5-(4-(6-((6-acetyl-8-cyclopentyl-5-methyl-7-oxo-7,8-dihydropyrido[2,3-d]pyrimidin-2-yl)amino)pyridin-3-yl)piperazin-1-yl)pentanamido)-3,3-dimethylbutanoyl)-4-hydroxy-N—((S)-1-(4-(4-methylthiazol-5-yl)phenyl)ethyl)pyrrolidine-2-carboxamide]",degradation of CDK6,"[1]; FAT1 loss / CDK6-high CDK4/6i-resistant MCF7 cells, 24 h treatment",most significant degradation of both CDK4 and CDK6; also recorded: high potency in degrading CDK4 and CDK6
same,degradation of CDK6,[1]; MCF7 cells with overexpression of CDK6,effectively degrade CDK4 and CDK6
same,colony formation,[2],more sensitive to BSJ-05-017 than to palbociclib
same,senescence and cell cycle arrest,[3],induces senescence and cell cycle arrest to a same extent as abemaciclib and palbociclib
same,inhibition of cell growth across cell lines (AUC of cell viability),[4],cells of other cancer types are also sensitive
same,inhibition of tumor growth,[5],effective in inhibiting tumor growth
same,inhibition of cell growth,[6],equal potency; also recorded: equipotent in suppressing proliferation
same,inhibition of cell growth,[7],equal potency; also recorded: equipotent in suppressing proliferation
same,inhibition of phosphorylation of Rb (and downstream E2F1/cyclin A2),[8],effective inhibition of the phosphorylation of Rb
